Measured values taken from patent US8580799B2 (priority 2008, dated 2013).
Read-outs that look alike come from different tables or passages of the source.

Assay: Measurement of logP values by HPLC on reversed phase columns (EEC directive 79/831 Annex V.A8)
Assay type: physicochemical
Conditions: for chromatographic logP: reversed phase HPLC column
[1] = HCOOH (formic acid) method, read-out: log P(HCOOH)
[2] = method [b]: LC-MS at pH 2.7 with 0.1% formic acid in water and acetonitrile, linear gradient 10% to 95% acetonitrile, read-out: logp
[3] = method [b]: LC-MS at pH 2.7 with 0.1% formic acid in water and acetonitrile, linear gradient 10% to 95% acetonitrile
[4] = method [a]: pH 2.3 with 0.1% phosphoric acid and acetonitrile as eluent

SMILES | logp [3] | also measured
CCCCCCNc1cccc(CON=C(c2cccc(F)c2)c2nnsc2C)n1 [Example 1, 6-[({[(3-fluorophenyl)(5-methyl-1,2,3-thiadiazol-4-yl)methylene]amino}oxy)methyl]-N-hexylpyridin-2-amine] |  | chromatographic logP [1]: 3.06; chromatographic logP [2]: 3.06
CCCCC#Cc1nc(CON=C(c2ccc(Cl)cc2)c2nnsc2C)cs1 [Example 4] | 5.68^[b] | 
CCCCCOC(=O)Nc1ccnc(CON=C(c2ccccc2)c2nsnc2C(F)(F)F)n1 [Example 9] |  | logp [4]: 4.92^[a]
CCCCC(=O)Nc1nc(CON=C(c2ccccc2)c2ccnn2C)cs1 [Example 55] | 3.39^[b] | 
Cn1nccc1C(=NOCc1csc(Br)n1)c1ccccc1 [Example 49] | 3.39^[b] | 
CCCCC#Cc1nc(CON=C(c2ccc(F)cc2)c2nonc2C)cs1 [Example 44] | 5.99^[b] | 
CCCCC#Cc1nc(CON=C(c2ccc(F)cc2)c2nnsc2C)cs1 [Example 5] | 5.19^[b] | 
CCCCCCNc1cccc(CON=C(c2ccccc2)c2nsnc2C)n1 [Example 31, N-hexyl-6-[({[(4-methyl-1,2,5-thiadiazol-3-yl)(phenyl)methylidene]amino}oxy)methyl]-pyridin-2-amine] |  | chromatographic logP [1]: 3.11; chromatographic logP [2]: 3.11
CCCCCCNc1cccc(CON=C(c2ccccc2)c2nsnc2C(F)(F)F)n1 [Example 39] | 3.44^[b] | 
O=C(Nc1ccnc(CON=C(c2ccccc2)c2nsnc2C(F)(F)F)n1)c1ccccc1 [Example 11] |  | logp [4]: 4.14^[a]
CCCCCOC(=O)Nc1cccc(CON=C(c2ccccc2)c2nsnc2C(F)(F)F)n1 [Example 19] |  | logp [4]: 5.68^[a]
Cn1nccc1C(=NOCc1csc(NC(=O)OC(C)(C)C)n1)c1ccccc1 [Example 63] | 3.69^[b] | 
CCCCNc1cccc(CON=C(c2ccccc2)c2nsnc2C)n1 [Example 32] | 2.41^[b] | 
CCCCCNc1cccc(CON=C(c2ccccc2)c2nsnc2C)n1 [Example 38] | 2.7^[b] | 
CCCCOC(=O)Nc1nc(CON=C(c2ccccc2)c2ccnn2C)cs1 [Example 58] | 3.76^[b] | 
O=C1c2ccccc2C(=O)N1c1cccc(CON=C(c2ccccc2)c2nsnc2C(F)(F)F)n1 [Example 18] |  | logp [4]: 4.31^[a]
C=CCCOC(=O)Nc1cccc(CON=C(c2ccccc2)c2nsnc2C)n1 [Example 24] | 4.65^[b] | 
C=CCCCCNc1cccc(CON=C(c2ccccc2)c2nsnc2C)n1 [Example 35] | 2.78^[b] | 
Cc1nsnc1C(=NOCc1cccc(NC(=O)OCc2ccccc2)n1)c1ccccc1 [Example 22] | 4.92^[b] | 
Cc1nsnc1C(=NOCc1cccc(NC(=O)OC(C)(C)C)n1)c1ccccc1 [Example 30, tert-butyl {6-[({[(4-methyl-1,2,5-thiadiazol-3-yl)(phenyl)methylene]-amino}oxy)methyl]pyridin-2-yl}carbamate] |  | chromatographic logP [1]: 4.97; chromatographic logP [2]: 4.97
CCCCCC(=O)Nc1nc(CON=C(c2ccccc2)c2ccnn2C)cs1 [Example 52] | 3.8^[b] | 
Nc1nc(CON=C(c2ccccc2)c2nsnc2C(F)(F)F)cs1 [Example 10] |  | logp [4]: 2.26^[a]
Nc1nc(CON2C(=O)c3ccccc3C2=O)cs1 [2-[(2-amino-1,3-thiazol-4-yl)methoxy]-1H-isoindole-1,3(2H)-dione] |  | chromatographic logP [1]: 0.74
CCCCCC(=O)Nc1ccnc(CON=C(c2ccccc2)c2nsnc2C(F)(F)F)n1 [Example 17] |  | logp [4]: 4.54^[a]
Cc1nsnc1/C(=N\OCc1cccc(N)n1)c1ccccc1 [6-[({[(Z)-(4-methyl-1,2,5-thiadiazol-3-yl)(phenyl)methylene]amino}oxy)-methyl]pyridin-2-amine] |  | chromatographic logP [1]: 1.54

SMILES | logp [3] | also measured
CCCCC(CC)COC(=O)Nc1cccc(CON=C(c2ccccc2)c2nsnc2C)n1 (stereo not drawn) [Example 27] | 6.76^[b] | 
CCCCC#Cc1nc(CON=C(c2ccccc2)c2nsnc2C)cs1 [Example 41] | 5.72^[b] | 
Cc1nsnc1C(=NOCc1cccc(N(C(=O)OC(C)(C)C)C(=O)OC(C)(C)C)n1)c1ccccc1 [Example 29] | 5.47^[b] | 
CCCCC#Cc1nc(CON=C(c2ccccc2)c2nsnc2C(F)(F)F)cs1 [Example 40] | 6.37^[b] | 
Cc1nsnc1/C(=N\OCc1cccc(N2C(=O)c3ccccc3C2=O)n1)c1ccccc1 [2-{6-[({[(Z)-(4-methyl-1,2,5-thiadiazol-3-yl)(phenyl)methylene]amino}-oxy)methyl]pyridin-2-yl}-1H-isoindole-1,3(2H)-dione] |  | chromatographic logP [1]: 3.99
Cn1nccc1C(=NOCc1csc(NC(=O)COc2ccccc2)n1)c1ccccc1 [Example 50] | 3.55^[b] | 
CC(C)CC(=O)Nc1ccnc(CON=C(c2ccccc2)c2nsnc2C(F)(F)F)n1 [Example 14] |  | logp [4]: 4.09^[a]
CCCCC#Cc1nc(CON=C(c2cccc(Cl)c2)c2nnsc2C)cs1 [Example 6, 1-(3-chlorophenyl)-N-([2-(hex-1-yn-1-yl)-1,3-thiazol-4-yl]methoxy)-1-(5-methyl-1,2,3-thiadiazol-4-yl)methanimine] |  | chromatographic logP [1]: 5.68; chromatographic logP [2]: 5.68
Nc1ccnc(CON=C(c2ccccc2)c2nsnc2C(F)(F)F)n1 [Example 8] |  | logp [4]: 1.75^[a]
Cc1nsnc1C(=NOCc1cccc(NCCCc2ccccc2)n1)c1ccccc1 [Example 36] | 2.98^[b] | 
CCCCC#Cc1nc(CON=C(c2ccccc2)c2nonc2C)cs1 [Example 45] | 5.51^[b] | 
CCCCCOC(=O)Nc1cccc(CON=C(c2ccccc2)c2nsnc2C)n1 [Example 20] | 5.5^[b] | 
CCCCCCCOC(=O)Nc1cccc(CON=C(c2ccccc2)c2nsnc2C)n1 [Example 26] | 6.42^[b] | 
CCCCC#Cc1nc(CON=C(c2cccc(F)c2)c2nnsc2C)cs1 [Example 7] | 5.25^[b] | 
Cc1nsnc1C(=NOCc1cccc(NCCC2CCCCC2)n1)c1ccccc1 [Example 37] | 3.46^[b] | 
CC#CCOC(=O)Nc1cccc(CON=C(c2ccccc2)c2nsnc2C)n1 [Example 25, But-2-yn-1-yl {6-[({[(4-methyl-1,2,5-thiadiazol-3-yl)(phenyl)methylidene]amino}oxy)-methyl]pyridin-2-yl}carbamate] |  | chromatographic logP [1]: 4.28; chromatographic logP [2]: 4.28
Cc1nsnc1C(=NOCc1cccc(NC(=O)OC2CCCC2)n1)c1ccccc1 [Example 21] | 5.11^[b] | 
C#CCCOC(=O)Nc1nc(CON=C(c2ccccc2)c2ccnn2C)cs1 [Example 61] | 3.11^[b] | 
CCOC(=O)Nc1nc(CON=C(c2ccccc2)c2ccnn2C)cs1 [Example 64] | 3^[b] | 
Cn1nccc1C(=NOCc1csc(NC(=O)C(C)(C)C)n1)c1ccccc1 [Example 54] | 3.46^[b] | 
Cc1nsnc1C(=NO)c1ccccc1 [N-hydroxy-1-(4-methyl-1,2,5-thiadiazol-3-yl)-1-phenylmethanimine] |  | chromatographic logP [1]: 2.26
O=C1c2ccccc2C(=O)N1OCc1csc(Br)n1 [2-[(2-bromo-1,3-thiazol-4-yl)methoxy]-1H-isoindole-1,3(2H)-dione] |  | chromatographic logP [1]: 2.39
CCCCCCNc1cccc(CON=C(c2ccccc2)c2nonc2C)n1 [Example 43] | 3.31^[b] | 
CCCCC#Cc1nc(CON2C(=O)c3ccccc3C2=O)cs1 [2-{[2-(hex-1-yn-1-yl)-1,3-thiazol-4-yl]methoxy}-1H-isoindole-1,3(2H)-dione] |  | chromatographic logP [1]: 3.78
